Biological target: Voltage-dependent L-type calcium channel subunit alpha-1C (Oryctolagus cuniculus, UniProt P15381)
Assay: ChEBML_164619
Source text: Blockade of calcium-evoked contractions in depolarized aortic strips

Sequence of Voltage-dependent L-type calcium channel subunit alpha-1C (P15381 whole entry): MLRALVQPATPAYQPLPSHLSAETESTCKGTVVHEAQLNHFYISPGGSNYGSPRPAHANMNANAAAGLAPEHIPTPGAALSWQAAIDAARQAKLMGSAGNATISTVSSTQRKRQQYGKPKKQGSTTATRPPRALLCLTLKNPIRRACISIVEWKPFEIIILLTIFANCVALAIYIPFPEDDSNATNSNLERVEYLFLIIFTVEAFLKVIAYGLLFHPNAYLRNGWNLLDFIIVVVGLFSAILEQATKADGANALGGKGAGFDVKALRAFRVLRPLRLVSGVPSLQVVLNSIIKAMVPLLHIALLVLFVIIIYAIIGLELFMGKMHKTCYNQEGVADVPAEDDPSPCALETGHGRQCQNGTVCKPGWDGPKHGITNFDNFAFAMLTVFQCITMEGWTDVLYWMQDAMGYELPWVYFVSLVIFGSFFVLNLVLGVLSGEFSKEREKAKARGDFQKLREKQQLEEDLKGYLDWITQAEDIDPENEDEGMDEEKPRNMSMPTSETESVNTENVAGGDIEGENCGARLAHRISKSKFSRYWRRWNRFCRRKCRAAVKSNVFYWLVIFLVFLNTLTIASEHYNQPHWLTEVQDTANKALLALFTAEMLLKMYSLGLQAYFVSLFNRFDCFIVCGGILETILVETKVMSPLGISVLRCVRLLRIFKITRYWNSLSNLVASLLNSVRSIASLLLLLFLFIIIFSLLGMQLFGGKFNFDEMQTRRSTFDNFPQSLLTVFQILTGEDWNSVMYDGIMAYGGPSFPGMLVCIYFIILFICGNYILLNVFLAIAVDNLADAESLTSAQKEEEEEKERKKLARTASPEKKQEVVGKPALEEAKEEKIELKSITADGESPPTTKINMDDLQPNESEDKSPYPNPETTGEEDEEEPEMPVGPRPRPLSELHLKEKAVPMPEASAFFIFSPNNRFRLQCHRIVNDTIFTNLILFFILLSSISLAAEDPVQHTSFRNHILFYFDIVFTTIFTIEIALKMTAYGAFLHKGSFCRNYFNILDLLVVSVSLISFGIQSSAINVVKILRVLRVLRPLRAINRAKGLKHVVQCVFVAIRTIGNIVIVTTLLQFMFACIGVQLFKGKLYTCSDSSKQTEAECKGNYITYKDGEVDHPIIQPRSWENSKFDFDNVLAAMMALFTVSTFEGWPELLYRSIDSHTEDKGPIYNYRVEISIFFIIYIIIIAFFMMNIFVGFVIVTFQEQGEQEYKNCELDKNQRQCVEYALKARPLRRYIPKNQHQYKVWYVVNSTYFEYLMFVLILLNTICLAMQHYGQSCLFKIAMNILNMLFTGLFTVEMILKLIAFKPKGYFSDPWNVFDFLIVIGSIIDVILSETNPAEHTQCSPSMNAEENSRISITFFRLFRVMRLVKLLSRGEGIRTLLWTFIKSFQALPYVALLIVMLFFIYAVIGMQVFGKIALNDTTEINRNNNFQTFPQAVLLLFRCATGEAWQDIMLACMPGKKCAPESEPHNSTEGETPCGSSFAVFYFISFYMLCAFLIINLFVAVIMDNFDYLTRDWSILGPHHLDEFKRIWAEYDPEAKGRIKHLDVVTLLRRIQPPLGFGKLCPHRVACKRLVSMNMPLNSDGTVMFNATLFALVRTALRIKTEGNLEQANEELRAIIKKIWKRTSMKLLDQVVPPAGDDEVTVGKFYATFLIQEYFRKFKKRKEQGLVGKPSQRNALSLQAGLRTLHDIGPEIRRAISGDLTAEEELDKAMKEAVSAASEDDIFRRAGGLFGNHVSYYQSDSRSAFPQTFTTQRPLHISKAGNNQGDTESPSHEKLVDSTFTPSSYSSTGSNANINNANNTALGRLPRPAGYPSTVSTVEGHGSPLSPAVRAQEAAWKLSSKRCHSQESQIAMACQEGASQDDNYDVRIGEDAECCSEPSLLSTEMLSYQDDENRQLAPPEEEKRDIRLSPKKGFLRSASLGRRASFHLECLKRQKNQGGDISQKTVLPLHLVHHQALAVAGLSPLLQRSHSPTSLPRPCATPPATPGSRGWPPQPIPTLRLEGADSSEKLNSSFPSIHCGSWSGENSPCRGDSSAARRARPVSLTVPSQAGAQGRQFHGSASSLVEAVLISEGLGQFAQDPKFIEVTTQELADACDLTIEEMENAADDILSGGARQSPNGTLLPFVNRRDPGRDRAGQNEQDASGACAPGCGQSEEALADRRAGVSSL

Row | IC50 [nM] | Compound
1 | 25 | CC1=NC(C)=C(C(=O)OCC2CCCCO2)C(c2ccccc2[N+](=O)[O-])C1=C(O)OCN1C(=O)c2ccccc2S1(=O)=O (centres undefined)
2 | 5.1 | COC(=O)C1C(C)=NC(C)=C(C(=O)OCN2C(=O)c3ccccc3S2(=O)=O)C1c1cccc(Cl)c1Cl (centres undefined)
3 | 2.9 | COCCOC(=O)C1C(C)=NC(C)=C(C(=O)OCN2C(=O)c3ccccc3S2(=O)=O)C1c1cccc(Cl)c1Cl (centres undefined)
4 | 25 | CC1=NC(C)=C(C(=O)OCC2CCCO2)C(c2cccc([N+](=O)[O-])c2)C1=C(O)OCN1C(=O)c2ccccc2S1(=O)=O (centres undefined)
